Laboratory results published in ChEMBL document CHEMBL3872244, “Synthesis, evaluation and molecular modelling studies of 2-(carbazol-3-yl)-2-oxoacetamide analogues as a new class of potential pancreatic lipase inhibitors” (Bioorg Med Chem, 2017).
Values belong to the molecule of their own block, whether it stands above or below them. The source made the active and inactive calls. No cut-off for these calls is given here.

Columns and labels:
[1] = molecular target: T1, Pancreatic triacylglycerol lipase (Homo sapiens, UniProt P16233); assay: Inhibition of pancreatic lipase (unknown origin)
T1 sequence (P16233 whole entry): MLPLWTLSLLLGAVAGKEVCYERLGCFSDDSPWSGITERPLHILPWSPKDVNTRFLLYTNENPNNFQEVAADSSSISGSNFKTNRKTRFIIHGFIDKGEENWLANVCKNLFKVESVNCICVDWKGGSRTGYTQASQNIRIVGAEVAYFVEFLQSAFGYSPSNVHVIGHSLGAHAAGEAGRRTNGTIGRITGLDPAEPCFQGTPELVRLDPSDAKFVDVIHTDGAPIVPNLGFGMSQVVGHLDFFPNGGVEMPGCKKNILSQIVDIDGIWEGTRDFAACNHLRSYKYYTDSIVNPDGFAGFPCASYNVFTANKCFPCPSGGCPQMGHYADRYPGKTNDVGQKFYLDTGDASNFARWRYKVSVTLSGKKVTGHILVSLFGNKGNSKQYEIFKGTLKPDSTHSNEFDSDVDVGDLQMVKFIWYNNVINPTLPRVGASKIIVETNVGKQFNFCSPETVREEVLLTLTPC

[2] = molecular target: T2, Pancreatic triacylglycerol lipase (Sus scrofa, UniProt P00591); assay: Inhibition of porcine pancreatic lipase assessed as reduction in 4-nitrophenol formation from 4-nitrophenyl butyrate substrate preincubated for 30 mins followed by substrate addition measured after 5 mins by spectrophotometer
T2 sequence (P00591 whole entry): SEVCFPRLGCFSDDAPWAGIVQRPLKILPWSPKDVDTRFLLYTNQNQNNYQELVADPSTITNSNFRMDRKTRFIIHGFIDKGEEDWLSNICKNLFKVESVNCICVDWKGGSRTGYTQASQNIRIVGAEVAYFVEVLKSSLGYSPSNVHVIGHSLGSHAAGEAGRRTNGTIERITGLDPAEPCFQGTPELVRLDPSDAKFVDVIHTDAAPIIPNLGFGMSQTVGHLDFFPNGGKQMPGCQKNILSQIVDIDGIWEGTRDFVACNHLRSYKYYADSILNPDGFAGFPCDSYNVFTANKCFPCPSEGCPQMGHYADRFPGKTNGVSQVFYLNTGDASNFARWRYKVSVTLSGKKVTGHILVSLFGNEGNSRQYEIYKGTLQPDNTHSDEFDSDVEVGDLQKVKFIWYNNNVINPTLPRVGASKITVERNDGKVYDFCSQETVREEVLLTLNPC

[3] = molecular target: T3, Pancreatic triacylglycerol lipase (Sus scrofa) (UniProt P00591); assay: Inhibition of porcine pancreatic lipase using tributyrin as substrate incubated for 30 mins measured at 1 min time interval for 5 mins in presence of NaTDC in incubation medium by pH-Stat method
T3 sequence (whole entry): T2 sequence (P00591 whole entry)

[4] = molecular target: T3, Pancreatic triacylglycerol lipase (Sus scrofa); assay: Inhibition of porcine pancreatic lipase using tributyrin as substrate preincubated for 30 mins measured at 1 min time interval for 5 mins in presence of NaTDC in reaction mixture by pH-Stat method
[5] = molecular target: T2, Pancreatic triacylglycerol lipase; assay: Competitive inhibition of porcine pancreatic lipase 4-nitrophenyl butyrate substrate preincubated for 30 mins followed by substrate addition measured after 5 mins by Dixon plot method
[6] = compound: COc1ccc(NC(=O)C(=O)c2ccc3c(c2)c2ccccc2n3Cc2ccc(Cl)cc2)cc1OC; assay: (§1) Competitive inhibition of porcine pancreatic lipase assessed as enzyme Km at 10 uM in presence of varying levels of 4-nitophenyl butyrate by Lineweaver-burk plot method; conditions: Sus scrofa
[7] = compound: COc1cc(NC(=O)C(=O)c2ccc3c(c2)c2ccccc2n3Cc2ccc(Cl)cc2)cc(OC)c1OC; assay: as §1; conditions: Sus scrofa
[8] = compound: COc1cc(NC(=O)C(=O)c2ccc3[nH]c4ccccc4c3c2)cc(OC)c1OC; assay: as §1; conditions: Sus scrofa
[9] = compound: CCCCCCCCCCC[C@@H](C[C@@H]1OC(=O)[C@H]1CCCCCC)OC(=O)[C@H](CC(C)C)NC=O; assay: as §1; conditions: Sus scrofa
[10] = compound: COc1ccc(NC(=O)C(=O)c2ccc3c(c2)c2ccccc2n3Cc2ccc(Cl)cc2)cc1OC; assay: (§2) Competitive inhibition of porcine pancreatic lipase assessed as enzyme Km at 5 uM in presence of varying levels of 4-nitophenyl butyrate by Lineweaver-burk plot method; conditions: Sus scrofa
[11] = compound: COc1cc(NC(=O)C(=O)c2ccc3c(c2)c2ccccc2n3Cc2ccc(Cl)cc2)cc(OC)c1OC; assay: as §2; conditions: Sus scrofa
[12] = compound: COc1cc(NC(=O)C(=O)c2ccc3[nH]c4ccccc4c3c2)cc(OC)c1OC; assay: as §2; conditions: Sus scrofa
[13] = compound: CCCCCCCCCCC[C@@H](C[C@@H]1OC(=O)[C@H]1CCCCCC)OC(=O)[C@H](CC(C)C)NC=O; assay: as §2; conditions: Sus scrofa
[14] = compound: COc1ccc(NC(=O)C(=O)c2ccc3c(c2)c2ccccc2n3Cc2ccc(Cl)cc2)cc1OC; assay: (§3) Competitive inhibition of porcine pancreatic lipase assessed as enzyme Km at 20 uM in presence of varying levels of 4-nitophenyl butyrate by Lineweaver-burk plot method; conditions: Sus scrofa
[15] = compound: COc1cc(NC(=O)C(=O)c2ccc3c(c2)c2ccccc2n3Cc2ccc(Cl)cc2)cc(OC)c1OC; assay: as §3; conditions: Sus scrofa
[16] = compound: COc1cc(NC(=O)C(=O)c2ccc3[nH]c4ccccc4c3c2)cc(OC)c1OC; assay: as §3; conditions: Sus scrofa
[17] = compound: CCCCCCCCCCC[C@@H](C[C@@H]1OC(=O)[C@H]1CCCCCC)OC(=O)[C@H](CC(C)C)NC=O; assay: as §3; conditions: Sus scrofa
[18] = compound: COc1ccc(NC(=O)C(=O)c2ccc3c(c2)c2ccccc2n3Cc2ccc(Cl)cc2)cc1OC; assay: (§4) Competitive inhibition of porcine pancreatic lipase assessed as enzyme Vmax in presence of varying levels of 4-nitophenyl butyrate by Lineweaver-burk plot method; conditions: Sus scrofa
[19] = compound: COc1cc(NC(=O)C(=O)c2ccc3c(c2)c2ccccc2n3Cc2ccc(Cl)cc2)cc(OC)c1OC; assay: as §4; conditions: Sus scrofa
[20] = compound: COc1cc(NC(=O)C(=O)c2ccc3[nH]c4ccccc4c3c2)cc(OC)c1OC; assay: as §4; conditions: Sus scrofa
[21] = compound: CCCCCCCCCCC[C@@H](C[C@@H]1OC(=O)[C@H]1CCCCCC)OC(=O)[C@H](CC(C)C)NC=O; assay: as §4; conditions: Sus scrofa

Molecule: CC(C)=CCCC1(C)C=Cc2c(c(C)cc3c2[nH]c2ccccc23)O1 (stereo not drawn) [MAHANIMBINE]
- IC50 [1]: 17.9 µM

- IC50 [2]: 29.7 µM
Molecule: O=C(Nc1ccccc1)C(=O)c1ccc2[nH]c3ccccc3c2c1

- IC50 [2]: 19.3 µM
Molecule: COc1ccc(NC(=O)C(=O)c2ccc3[nH]c4ccccc4c3c2)cc1

- IC50 [2]: 13.9 µM
Molecule: O=C(Nc1ccccc1)C(=O)c1ccc2c(c1)c1ccccc1n2Cc1ccc(Cl)cc1

- IC50 [2]: 15.5 µM
Molecule: CCn1c2ccccc2c2cc(C(=O)C(=O)Nc3ccc4ncccc4c3)ccc21

- IC50 [2]: 13.5 µM
Molecule: Cc1ccc(NC(=O)C(=O)c2ccc3c(c2)c2ccccc2n3Cc2ccc(Cl)cc2)cc1

- IC50 [2]: 23 µM
Molecule: O=C(Nc1ccc2ncccc2c1)C(=O)c1ccc2c(c1)c1ccccc1n2Cc1ccc(Cl)cc1

- IC50 [2]: 14.8 µM
Molecule: CN(C)c1ccc(NC(=O)C(=O)c2ccc3c(c2)c2ccccc2n3Cc2ccc(Cl)cc2)cc1

- IC50 [2]: 19.9 µM
Molecule: O=C(Nc1ccncc1)C(=O)c1ccc2c(c1)c1ccccc1n2Cc1ccc(Cl)cc1

- inhibition [3]: Active
- IC50 [2]: 6.31 µM
- XI50 [4]: 21.9
- Ki [5]: 17.5 µM
Molecule: COc1ccc(NC(=O)C(=O)c2ccc3c(c2)c2ccccc2n3Cc2ccc(Cl)cc2)cc1OC

- IC50 [2]: 29.4 µM
Molecule: O=C(Nc1ccncc1)C(=O)c1ccc2[nH]c3ccccc3c2c1

- IC50 [2]: 28 µM
Molecule: O=C(Nc1ccc(F)cc1)C(=O)c1ccc2c(c1)c1ccccc1n2Cc1ccc(Cl)cc1

- IC50 [2]: 33 µM
Molecule: COc1cccc(NC(=O)C(=O)c2ccc3[nH]c4ccccc4c3c2)c1

- IC50 [2]: 23.1 µM
Molecule: COc1cc(NC(=O)C(=O)c2ccc3c(c2)c2ccccc2n3C)cc(OC)c1OC

- IC50 [2]: 36.2 µM
Molecule: Cn1c2ccccc2c2cc(C(=O)C(=O)Nc3ccccc3)ccc21

- IC50 [2]: 26.6 µM
Molecule: COc1cccc(NC(=O)C(=O)c2ccc3c(c2)c2ccccc2n3Cc2ccc(Cl)cc2)c1

- IC50 [2]: 44.1 µM
Molecule: COc1ccc(NC(=O)C(=O)c2ccc3[nH]c4ccccc4c3c2)cc1OC

- IC50 [1]: 169 µM
Molecule: COc1ccc2[nH]c3c4c(c(C)cc3c2c1)OC(C)(C)C=C4 [KOENIMBINE]

- IC50 [2]: 32.8 µM
Molecule: Cc1cnc(NC(=O)C(=O)c2ccc3c(c2)c2ccccc2n3Cc2ccc(Cl)cc2)s1

- IC50 [2]: 16.4 µM
Molecule: CCn1c2ccccc2c2cc(C(=O)C(=O)Nc3ccc(OC)c(OC)c3)ccc21

- IC50 [2]: 56.2 µM
Molecule: CCn1c2ccccc2c2cc(C(=O)C(=O)Nc3ccc(N(C)C)cc3)ccc21

- inhibition [3]: Active
- IC50 [2]: 8.72 µM
- XI50 [4]: 21.9
- Ki [5]: 19.6 µM
Molecule: COc1cc(NC(=O)C(=O)c2ccc3c(c2)c2ccccc2n3Cc2ccc(Cl)cc2)cc(OC)c1OC

- IC50 [1]: 429 µM
Molecule: COc1cc2[nH]c3c4c(c(C)cc3c2cc1OC)OC(C)(C)C=C4

- IC50 [2]: 14.8 µM
Molecule: COc1ccc(NC(=O)C(=O)c2ccc3c(c2)c2ccccc2n3Cc2ccc(Cl)cc2)cc1

- IC50 [2]: 11.4 µM
Molecule: CCn1c2ccccc2c2cc(C(=O)C(=O)Nc3cc(OC)c(OC)c(OC)c3)ccc21

- XI50 [4]: 3.14
Molecule: CCCCCCCCCCC[C@@H](C[C@@H]1OC(=O)[C@H]1CCCCCC)OC(=O)[C@H](CC(C)C)NC=O

- inhibition [3]: Active
- IC50 [2]: 9.58 µM
- XI50 [4]: 26.2
- Ki [5]: 21.6 µM
Molecule: COc1cc(NC(=O)C(=O)c2ccc3[nH]c4ccccc4c3c2)cc(OC)c1OC

- IC50 [2]: 24.2 µM
Molecule: CCn1c2ccccc2c2cc(C(=O)C(=O)Nc3ccccc3)ccc21

B1: Pancreatic triacylglycerol lipase (Sus scrofa), P00591 (protein)
chain: T2 sequence (P00591 whole entry)
- Km [6]: 156 µM
- Km [7]: 152 µM
- Km [8]: 151 µM
- Km [9]: 228 µM
- Km [10]: 129 µM
- Km [11]: 126 µM
- Km [12]: 123 µM
- Km [13]: 197 µM
- Km [14]: 179 µM
- Km [15]: 165 µM
- Km [16]: 163 µM
- Km [17]: 253 µM
- Vmax [18]: 15.2 µM/min
- Vmax [19]: 15.5 µM/min
- Vmax [20]: 15 µM/min
- Vmax [21]: 15.2 µM/min
